ChEMBL document CHEMBL1201862, “PubChem BioAssay data set” (2004)
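Five compound concentrations were applied to cells in 96-well plates for 48 hours; endpoints were derived by simple linear interpolation of the resulting dose-response curve. At the GI50, growth is halved.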 Calls of active or inactive are those of the source. No stated cut-off is given here; in the data, active = GI50 up to about 1.1 µM and inactive = higher.

Columns and labels:
Experiment in all cases: NCI-60 cell line screen, 48 h
786-0 = system: 786-0
ACHN = system: ACHN
CAKI-1 = system: CAKI-1
CCRF-CEM = system: CCRF-CEM
HCT-116 = system: HCT-116
HL-60 = system: HL-60
HT-29 = system: HT-29
K562 = system: K562
MOLT-4 = system: MOLT-4
RPMI-8226 = system: RPMI-8226
SF-295 = system: SF-295
SF-539 = system: SF-539
SK-OV-3 = system: SK-OV-3
SNB-19 = system: SNB-19
SNB-75 = system: SNB-75
TK-10 = system: TK-10
U-251 = system: U-251
UO-31 = system: UO-31
RXF 393 = system: RXF 393

Measured: GI50

Cc1ccccc1C1CC(c2ccccc2)=NO1 (stereo unspecified)
inactive: 786-0 > 100 µM | ACHN > 100 µM | CAKI-1 > 100 µM | CCRF-CEM > 100 µM | HCT-116 > 100 µM | HL-60 > 100 µM | HT-29 > 100 µM | K562 > 100 µM | MOLT-4 > 100 µM | RPMI-8226 > 100 µM | SF-295 > 100 µM | SF-539 > 100 µM | SK-OV-3 > 100 µM | SNB-19 > 100 µM | SNB-75 > 100 µM | TK-10 > 100 µM | U-251 > 100 µM | UO-31 > 100 µM

CCc1cccc(C)c1NC(=O)CCc1n[nH]c(=S)o1
inactive: 786-0 > 100 µM | ACHN > 100 µM | CAKI-1 > 100 µM | CCRF-CEM > 100 µM | HCT-116 16.1 µM | HL-60 > 100 µM | HT-29 95.5 µM | K562 66.8 µM | MOLT-4 > 100 µM | RPMI-8226 21.6 µM | SF-295 > 100 µM | SF-539 > 100 µM | SK-OV-3 > 100 µM | SNB-19 > 100 µM | SNB-75 > 100 µM | TK-10 > 100 µM | U-251 > 100 µM | UO-31 > 100 µM

O=[N+]([O-])C(=C1c2ccccc2-c2ccccc21)[N+](=O)[O-]
inactive: 786-0 > 100 µM | ACHN 62.8 µM | CAKI-1 > 100 µM | CCRF-CEM 47.6 µM | HCT-116 38 µM | HL-60 29.2 µM | HT-29 50.6 µM | K562 43.8 µM | MOLT-4 32.6 µM | RPMI-8226 44 µM | RXF 393 > 100 µM | SF-295 > 10 µM | SF-539 > 100 µM | SNB-19 97.5 µM | TK-10 > 100 µM | U-251 > 100 µM | UO-31 52.4 µM

NC(CCCCNCc1ccccc1O)C(=O)O (stereo unspecified)
inactive: 786-0 > 100 µM | ACHN > 100 µM | CAKI-1 > 100 µM | CCRF-CEM > 100 µM | HCT-116 > 100 µM | HL-60 > 100 µM | HT-29 > 100 µM | K562 > 100 µM | MOLT-4 > 100 µM | RPMI-8226 > 100 µM | SF-295 > 100 µM | SF-539 > 100 µM | SK-OV-3 > 100 µM | SNB-19 > 100 µM | SNB-75 93.5 µM | TK-10 > 100 µM | U-251 > 100 µM | UO-31 > 100 µM
